Entries after “also recorded” stand apart in the source; their conditions may differ. Square brackets hold non-standard residues; d marks the D form. Peptide text beside a SMILES is read from it. * marks the point of attachment. Cyclohexanoyl(1S,3S-3-NH2) = N[C@H]1CCC[C@H](C(=O)*)C1; Trp(5-OH) = N[C@@H](Cc1c[nH]c2ccc(O)cc12)C(=O)O; NH(4-morpholinophenyl) = c1cc(N2CCOCC2)ccc1N*; Bip = N[C@@H](Cc1ccc(-c2ccccc2)cc1)C(=O)O; hArg = N=C(N)NCCCC[C@H](N)C(=O)O

What is called koff is a measure of how fast the partners let go of each other.

For test [1], the target named is T1, ^13C^ε-Met-labeled EphA4-LBD (Homo sapiens, UniProt P54764, C204A).
T1 construct: His tag (N); made in house; host or cells: E. coli Rosetta-Gami B(DE3), pET15b
T1 sequence (P54764 29-209 C204A): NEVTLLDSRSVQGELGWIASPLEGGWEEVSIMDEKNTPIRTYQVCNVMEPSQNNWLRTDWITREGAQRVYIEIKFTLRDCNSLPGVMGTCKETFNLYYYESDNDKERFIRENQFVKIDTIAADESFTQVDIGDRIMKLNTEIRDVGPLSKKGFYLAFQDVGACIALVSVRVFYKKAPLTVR
Description: 2D [13C,1H] HSQC NMR chemical shift perturbation of Met resonances. Type of test: binding. As for the experimental part:
Peptides were synthesized by using standard solid-phase synthesis protocol, using the BAL resin as anchoring for the C-terminal amines. Isothermal Titration Calorimetry (ITC) measurements were performed in a reverse fashion by titrating the protein into the ligand solution. Solution nuclear magnetic resonance (NMR) experiments were conducted on a 700 MHz Bruker Avance spectrometer equipped with a TCI cryoprobe. […]
2D [^13C,^1H] correlation NMR spectra measured with such protein targets, collected in absence or presence of test ligands can be used to monitor ligand binding and make, albeit qualitative, determinations on possible conformational changes induced by test ligands on the protein target. […] In targeting EphA4, an important aspect regarding the activity of its ligands is whether these agents could be predicted to work as antagonists or agonists.
NMR spectra were acquired on Bruker Avance III 700 MHz spectrometer equipped with a TCI cryoprobe. All NMR data were processed and analyzed using TOPSPIN 3.6.1 (Bruker, Billerica, Mass., USA).
Chemical shift changes (A) in the 2D [^13C, ^1H] spectra were calculated as weight average perturbations observed in the ^1H and ^13C dimensions using the following Equation: […]

Another test has as its target EphA2-LBD (Homo sapiens, UniProt P29317). Nature of the test: Isothermal titration calorimetry (ITC) against EphA2-LBD. A general note: ITC needs no label: the signal is the heat of the interaction.
Another test addresses EphA3-LBD Chimera (Homo sapiens, UniProt P54764, C204A/E77D/G52H/I159L/I59G/M164L/M60V/R37K/V157M). Description: Isothermal titration calorimetry (ITC) against EphA3-LBD chimera. The note with it: listed as 150D4.
[2] abbreviates: test ligands at 40 μM, EphA4-LDB at 20 μM, Table 8.

Sequence of EphA3-LBD Chimera (P54764 29-209 R37K/G52H/I59G/M60V/E77D/V157M/I159L/M164L/C204A): as the sequence (P54764 29-209 C204A) above, with R9K, G24H, I31G, M32V, E49D, V129M, I131L, M136L counted along it
Sequence of EphA2-LBD (P29317 27-200): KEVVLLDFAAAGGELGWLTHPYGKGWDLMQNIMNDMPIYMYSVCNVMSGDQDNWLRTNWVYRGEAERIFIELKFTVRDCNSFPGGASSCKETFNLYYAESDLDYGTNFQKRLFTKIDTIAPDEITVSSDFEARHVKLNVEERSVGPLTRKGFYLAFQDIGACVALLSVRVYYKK
Description for EphA2-LBD: (§1) Isothermal titration calorimetry (ITC) measurements were performed using the Affinity ITC Autosampler from TA Instruments (New Castle, Del.). The titrations were performed in a reverse fashion by titrating the protein into the ligand solution. […] The injections were made at 200 s or 400 s intervals with a stirring speed of 75 rpm. All the solutions were kept in the autosampler at 4° C. The analysis of the thermodynamics signatures and for dissociation constant determination was performed by the NanoAnalyze software (TA Instruments, New Castle, Del.) and subsequently exported into Microsoft Excel.
Description for EphA3-LBD Chimera: as §1

`N=C(N)NCCCC[C@H](NC(=O)[C@H](Cc1ccc(-c2ccccc2)cc1)NC(=O)[C@H](Cc1c[nH]c2ccc(O)cc12)NC(=O)[C@H]1CCC[C@H](N)C1)C(=O)NCC(=O)Nc1ccc(N2CCOCC2)cc1` [Compound 8, (1S,3S)—N—((S)-1-(((S)-3-([1,1′-biphenyl]-4-yl)-1-(((S)-6-guanidino-1-((2-((4-morpholinophenyl)amino)-2-oxoethyl)amino)-1-oxohexan-2-yl)amino)-1-oxopropan-2-yl)amino)-3-(5-hydroxy-1H-indol-3-yl)-1-oxopropan-2-yl)-3-aminocyclohexane-1-carboxamide] ({Cyclohexanoyl(1S,3S-3-NH2)}-[Trp(5-OH)][Bip][hArg]G-{NH(4-morpholinophenyl)}): the “chemical shift perturbation of Met 115 (in words)” value in test [1] is “no significant perturbations”. For the same molecule, the “chemical shift changes of Met 60 and Met 164 (in words)” value in test [1] (FIG. 8B) is listed as “large chemical shift changes”. In addition, the “Δδ ^13C^ϵ/^1H^ϵ Met 164” value in test [1] (protein 20 μM, 20 μM of each compound) is “++++ (++++ >0.25 ppm)”. In addition, in test [1] (read-out: estimated upper limit for the off rate for the complex koff), the off-rate (koff) is < 60 s⁻¹. In test [1] (setting [2]), the “Δδ Met 60” value is “++ (0.1 ppm < ++ <0.2 ppm)”, the “Δδ Met 115” value is listed as “+ (0< + <0.1 ppm)” and the “Δδ Met 164” value is given as “++++ (++++ >0.25 ppm)”. For the same molecule, the “binding to EphA2 (in words)” value at EphA2-LBD is on record as “limited binding”. Further, the “binding to EphA3 (in words)” value on EphA3-LBD Chimera is “limited binding; also recorded: markedly reduced affinity”.

Values taken from US20230203096A1, “EPHA4 TARGETING COMPOUNDS AND METHODS OF USE THEREOF” (priority 2020, published 2023).
